# Reference: ChEMBL document CHEMBL1201862, “PubChem BioAssay data set” (2004)
# Activity calls are given as the source filed them.
# What was measured:
# [1] = molecular target: Lysine-specific demethylase 4A (Homo sapiens, UniProt O75164); assay: JMJD2A histone demethylase inhibitors, dose response, selectivity assay for GASC-1 inhibitor project, biochemical, DELFIA europium, cherry-picked samples (AID 488840)
# Cysteine protease ATG4B = Cysteine protease ATG4B (Homo sapiens, UniProt Q9Y4P1); format: functional;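 note: Fluorescence-based dose-response confirmation assay measuring inhibition of ATG4B activity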
# Cysteine protease ATG4B, sequence (Q9Y4P1 whole entry): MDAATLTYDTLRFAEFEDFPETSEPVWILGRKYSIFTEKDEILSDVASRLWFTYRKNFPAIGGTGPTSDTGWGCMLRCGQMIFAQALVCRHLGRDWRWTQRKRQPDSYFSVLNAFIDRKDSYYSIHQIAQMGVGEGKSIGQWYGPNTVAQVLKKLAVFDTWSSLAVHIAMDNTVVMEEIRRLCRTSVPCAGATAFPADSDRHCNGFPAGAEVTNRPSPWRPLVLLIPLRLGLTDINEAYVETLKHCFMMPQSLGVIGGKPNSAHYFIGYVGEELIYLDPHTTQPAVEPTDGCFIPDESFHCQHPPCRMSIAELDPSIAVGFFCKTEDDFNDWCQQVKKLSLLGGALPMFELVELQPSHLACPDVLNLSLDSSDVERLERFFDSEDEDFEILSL
# Phospholipase A2 = Phospholipase A2 (Homo sapiens, UniProt P04054); format: functional;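 note: confirmatory dose-response counterscreen on phospholipase A2, testing hits that came from an ultra-high-throughput screen for ATG4B inhibitors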
# Phospholipase A2, sequence (P04054 whole entry): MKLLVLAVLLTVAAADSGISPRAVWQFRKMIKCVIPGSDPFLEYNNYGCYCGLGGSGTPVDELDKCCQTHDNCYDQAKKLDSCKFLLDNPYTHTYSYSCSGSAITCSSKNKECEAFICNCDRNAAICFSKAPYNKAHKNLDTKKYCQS
# HEK293 [2] = assay: cells; format: functional, cell-based; conditions: Homo sapiens
# [3] = molecular target: T1, Nuclear receptor subfamily 0 group B member 1 (Homo sapiens, UniProt P51843); assay: Luminescence-based cell-based high throughput dose response assay for inhibitors of the orphan nuclear receptor subfamily 0, group B, member 1 (DAX1; NR0B1). [Related pubchem assays (depositor defined):AID504766, AID504790]; format: functional
# T1 sequence (P51843 whole entry): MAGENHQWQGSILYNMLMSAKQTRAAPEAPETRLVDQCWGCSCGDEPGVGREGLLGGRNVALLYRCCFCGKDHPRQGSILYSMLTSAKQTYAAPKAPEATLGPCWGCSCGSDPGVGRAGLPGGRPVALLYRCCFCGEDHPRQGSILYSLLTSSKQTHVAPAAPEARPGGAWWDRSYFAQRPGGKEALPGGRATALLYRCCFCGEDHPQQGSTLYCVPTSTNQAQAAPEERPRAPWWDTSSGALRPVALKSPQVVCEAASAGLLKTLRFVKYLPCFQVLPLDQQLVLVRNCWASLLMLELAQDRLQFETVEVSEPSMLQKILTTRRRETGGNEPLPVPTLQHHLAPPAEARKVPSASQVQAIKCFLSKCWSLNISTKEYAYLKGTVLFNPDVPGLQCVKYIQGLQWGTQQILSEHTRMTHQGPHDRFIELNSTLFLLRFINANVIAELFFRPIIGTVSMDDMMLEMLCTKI
# [4] = molecular target: T2, Alkaline phosphatase, tissue-nonspecific isozyme (Homo sapiens, UniProt P05186); assay: TNAP enzyme inhibition by screening hits, dose response, selectivity assay for mouse IAP inhibitor project, biochemical, human TNAP, uHTS hits (AID 488906); format: functional
# T2 sequence (P05186 whole entry): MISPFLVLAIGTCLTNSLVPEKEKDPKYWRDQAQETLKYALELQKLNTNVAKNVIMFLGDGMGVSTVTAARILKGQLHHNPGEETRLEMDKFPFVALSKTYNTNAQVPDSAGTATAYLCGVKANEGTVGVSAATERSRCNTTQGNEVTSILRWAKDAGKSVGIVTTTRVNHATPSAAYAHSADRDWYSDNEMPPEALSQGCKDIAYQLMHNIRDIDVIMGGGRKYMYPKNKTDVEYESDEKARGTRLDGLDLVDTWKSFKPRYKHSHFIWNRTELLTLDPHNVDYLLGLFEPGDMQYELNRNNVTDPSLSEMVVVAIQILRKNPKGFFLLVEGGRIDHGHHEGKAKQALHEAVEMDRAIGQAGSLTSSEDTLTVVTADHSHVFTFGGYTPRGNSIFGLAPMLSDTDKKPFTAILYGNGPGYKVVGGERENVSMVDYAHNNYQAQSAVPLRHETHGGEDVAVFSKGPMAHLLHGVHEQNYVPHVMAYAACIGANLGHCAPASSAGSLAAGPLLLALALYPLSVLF
# [5] = molecular target: Intestinal-type alkaline phosphatase (Mus musculus, UniProt P24822); assay: PubChem AID 488785; format: functional
# Intestinal-type alkaline phosphatase (Mus musculus, UniProt P24822), sequence (P24822 whole entry): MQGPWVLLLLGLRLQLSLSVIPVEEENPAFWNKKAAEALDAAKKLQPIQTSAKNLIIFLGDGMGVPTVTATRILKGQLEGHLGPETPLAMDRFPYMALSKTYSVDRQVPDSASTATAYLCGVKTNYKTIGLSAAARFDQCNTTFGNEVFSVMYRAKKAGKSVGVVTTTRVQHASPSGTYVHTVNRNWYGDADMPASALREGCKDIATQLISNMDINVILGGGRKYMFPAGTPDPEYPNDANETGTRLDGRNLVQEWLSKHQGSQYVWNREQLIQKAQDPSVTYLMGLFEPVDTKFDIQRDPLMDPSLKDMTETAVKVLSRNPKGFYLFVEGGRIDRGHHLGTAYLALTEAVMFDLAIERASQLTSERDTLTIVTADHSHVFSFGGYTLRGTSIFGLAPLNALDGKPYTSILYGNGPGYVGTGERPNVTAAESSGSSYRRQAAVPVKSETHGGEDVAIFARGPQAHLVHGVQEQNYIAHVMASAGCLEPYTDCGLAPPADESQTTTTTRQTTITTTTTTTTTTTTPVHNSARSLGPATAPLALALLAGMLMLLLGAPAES
# [6] = molecular target: Intestinal-type alkaline phosphatase (Homo sapiens, UniProt P09923); assay: inhibition of human intestinal alkaline phosphatase – biochemical, dose response (AID 488876); format: functional
# Intestinal-type alkaline phosphatase (Homo sapiens, UniProt P09923), sequence (P09923 whole entry): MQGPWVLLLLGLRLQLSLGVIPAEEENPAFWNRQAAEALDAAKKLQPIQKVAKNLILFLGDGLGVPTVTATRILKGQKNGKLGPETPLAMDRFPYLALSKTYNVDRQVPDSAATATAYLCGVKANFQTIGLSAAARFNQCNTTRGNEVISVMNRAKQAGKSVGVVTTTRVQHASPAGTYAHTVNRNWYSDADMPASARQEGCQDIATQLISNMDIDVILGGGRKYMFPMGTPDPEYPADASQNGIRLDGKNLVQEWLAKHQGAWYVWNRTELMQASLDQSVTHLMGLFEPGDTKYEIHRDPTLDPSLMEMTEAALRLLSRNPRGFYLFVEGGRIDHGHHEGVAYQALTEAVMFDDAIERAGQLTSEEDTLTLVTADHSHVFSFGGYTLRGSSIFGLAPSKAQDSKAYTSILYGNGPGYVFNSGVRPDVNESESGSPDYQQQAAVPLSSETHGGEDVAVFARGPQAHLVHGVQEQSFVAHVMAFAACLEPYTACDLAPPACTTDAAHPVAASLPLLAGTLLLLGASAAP
# HEK293 [7] = assay: cells; conditions: Homo sapiens
# HEK293 [8] = assay: cells; conditions: Homo sapiens; remark: listed apart in the source
# Streptococcus = assay: Group A Streptococcus viability loss, dose response, counter-screen for streptokinase expression inhibitor project, luminescence, BacTiterGlo (AID 1915); format: functional, organism-based;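 note: potency for reduction of bacterial viability or growth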
# Escherichia coli [9] = assay: microbe, parasite or virus in culture
# [10] = test system: Streptococcus sp. 'group A'; assay: growth inhibition of control SK(-) GAS strain, dose response, counter-screen for streptokinase expression inhibitor project, luminescence, kanamycin, BacTiterGlo, confirmation (AID 1900); format: functional, organism-based
# HeLa = assay: HeLa cell cytotoxicity, dose response, cytotoxicity control for MITF activator project, CellTiter-Glo luminescence, cherry-pick samples (AID 540259); format: functional, cell-based; conditions: Homo sapiens
# H4 = assay: Luminescence Cell-Based Dose Response HTS to Identify Activators of 5'UTR Stem-Loop Driven Prion Protein mRNA Translation in H4 Neuroglioblastoma Cells. [Related pubchem assays: 1829 (Project Summary), 1814 (Primary HTS)]; format: functional; conditions: Homo sapiens
# Escherichia coli [11] = assay: microbe, parasite or virus in culture; remark: listed apart in the source
# [12] = molecular target: Sphingosine 1-phosphate receptor 2 (Homo sapiens, UniProt O95136); assay: Dose Response Cell Based Assay for Agonists of the S1P2 Receptor. [Related pubchem assays: 729, 736, 843 ]; format: functional
# [13] = molecular target: Dual specificity tyrosine-phosphorylation-regulated kinase 1A (Rattus norvegicus, UniProt Q63470); format: biochemical, Homo sapiens
# Genome polyprotein = Genome polyprotein (dengue virus type 2, UniProt P29990); assay: Dengue-2 NS5 methyltransferase inhibitors, primary screen, biochemical, confirmation dose response (AID 588689); format: functional
# Cytochrome P450 2C19 = Cytochrome P450 2C19 (Homo sapiens, UniProt P33261); assay: Cytochrome panel assay with activity outcomes. Panel member name: p450-cyp2c19 Compounds with AC50 equal or less than 10 uM are considered active; format: functional
# Cytochrome P450 2C19, sequence (P33261 whole entry): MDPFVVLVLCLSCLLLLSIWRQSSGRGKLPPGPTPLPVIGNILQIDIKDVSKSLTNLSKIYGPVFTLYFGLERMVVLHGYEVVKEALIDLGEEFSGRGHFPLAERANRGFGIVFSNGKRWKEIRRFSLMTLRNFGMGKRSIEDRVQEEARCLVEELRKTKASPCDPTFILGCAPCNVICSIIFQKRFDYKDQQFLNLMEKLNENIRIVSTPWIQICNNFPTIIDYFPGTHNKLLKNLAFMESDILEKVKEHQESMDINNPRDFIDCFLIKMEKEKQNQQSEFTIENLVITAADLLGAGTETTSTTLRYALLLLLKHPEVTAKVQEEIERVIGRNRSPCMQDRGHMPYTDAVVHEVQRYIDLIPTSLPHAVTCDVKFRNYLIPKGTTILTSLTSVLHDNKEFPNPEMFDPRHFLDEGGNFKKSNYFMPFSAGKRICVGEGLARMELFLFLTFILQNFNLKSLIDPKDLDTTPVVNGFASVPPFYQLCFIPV
# Cytochrome P450 3A4 [14] = molecular target: T3, Cytochrome P450 3A4 (Homo sapiens, UniProt P08684);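 note: CYP3A4 tested as one member of a cytochrome P450 panel screen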
# T3 sequence (P08684 whole entry): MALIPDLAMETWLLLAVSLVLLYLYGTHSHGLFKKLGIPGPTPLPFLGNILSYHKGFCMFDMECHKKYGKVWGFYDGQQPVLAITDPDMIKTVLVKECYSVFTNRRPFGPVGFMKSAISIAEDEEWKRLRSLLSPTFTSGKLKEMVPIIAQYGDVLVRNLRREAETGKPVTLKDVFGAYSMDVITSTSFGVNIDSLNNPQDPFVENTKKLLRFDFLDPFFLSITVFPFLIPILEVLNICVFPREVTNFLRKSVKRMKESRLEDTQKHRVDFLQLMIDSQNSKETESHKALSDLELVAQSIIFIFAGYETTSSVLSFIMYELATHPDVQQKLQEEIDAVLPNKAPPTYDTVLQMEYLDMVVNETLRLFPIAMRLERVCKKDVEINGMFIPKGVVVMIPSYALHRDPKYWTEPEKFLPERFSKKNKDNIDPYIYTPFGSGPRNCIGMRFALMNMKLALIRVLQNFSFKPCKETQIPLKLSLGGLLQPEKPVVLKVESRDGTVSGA
# [15] = molecular target: Induced myeloid leukemia cell differentiation protein Mcl-1 (Homo sapiens, UniProt Q07820); format: functional
# CAAX prenyl protease 2 [16] = molecular target: CAAX prenyl protease 2 (Saccharomyces cerevisiae S288c, UniProt Q03530); format: biochemical
# CAAX prenyl protease 2 [17] = molecular target: CAAX prenyl protease 2 (Homo sapiens, UniProt Q9Y256); assay: human Rce1 protease inhibitors, dose response, biochemical, yeast membranes, quenched-peptide fluorescence, cherry-pick (AID 588849)
# [18] = molecular target: Delta-type opioid receptor (Homo sapiens, UniProt P41143); assay: Counterscreen for agonists of heterodimerization of the mu 1 (OPRM1) and delta 1 (OPRD1) opioid receptors: Luminescence-based cell-based high throughput dose response assay to identify agonists of OPRD1 homodimerization. [Related pubchem assays (depositor defined):AID504326, AID504355, AID504692, AID504904, AID504905]; format: functional
# Delta-type opioid receptor, sequence (P41143 whole entry): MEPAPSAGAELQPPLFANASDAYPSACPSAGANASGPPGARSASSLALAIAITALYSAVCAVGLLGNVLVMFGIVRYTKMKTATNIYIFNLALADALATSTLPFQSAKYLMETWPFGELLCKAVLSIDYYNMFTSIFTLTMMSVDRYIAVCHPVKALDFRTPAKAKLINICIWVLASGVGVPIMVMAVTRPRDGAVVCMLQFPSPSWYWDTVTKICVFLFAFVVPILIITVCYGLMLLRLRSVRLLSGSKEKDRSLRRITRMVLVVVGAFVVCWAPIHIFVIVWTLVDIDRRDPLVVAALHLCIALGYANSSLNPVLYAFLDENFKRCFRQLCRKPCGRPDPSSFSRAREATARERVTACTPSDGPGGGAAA
# Mu-type opioid receptor = Mu-type opioid receptor (Homo sapiens, UniProt P35372); assay: Counterscreen for agonists of heterodimerization of the mu 1 (OPRM1) and delta 1 (OPRD1) opioid receptors: Luminescence-based cell-based high throughput dose response assay to identify agonists of OPRM1 homodimerization.; format: functional;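 note: U2OS cells expressing OPRM1 and beta-arrestin as split beta-galactosidase partners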
# Mu-type opioid receptor, sequence (P35372 whole entry): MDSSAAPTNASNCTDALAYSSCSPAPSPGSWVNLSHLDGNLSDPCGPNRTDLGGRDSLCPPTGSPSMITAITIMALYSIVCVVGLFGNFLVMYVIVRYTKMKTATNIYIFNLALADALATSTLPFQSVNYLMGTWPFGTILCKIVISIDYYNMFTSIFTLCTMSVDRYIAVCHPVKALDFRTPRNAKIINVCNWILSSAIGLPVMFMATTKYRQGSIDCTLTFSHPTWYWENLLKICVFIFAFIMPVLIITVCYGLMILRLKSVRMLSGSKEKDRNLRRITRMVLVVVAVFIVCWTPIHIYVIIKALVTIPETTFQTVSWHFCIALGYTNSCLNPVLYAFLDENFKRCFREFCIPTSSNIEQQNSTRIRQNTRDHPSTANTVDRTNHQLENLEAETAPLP
# [19] = molecular target: G-protein coupled receptor 55 (Homo sapiens, UniProt Q9Y2T6); assay: GPR55 antagonists blocking LPI-driven arrestin recruitment, primary screen, imaging, U2OS, beta-arrestin-GFP, LPI agonist (AID 2013); format: functional;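 note: antagonist potency measured as reduced agonist-driven arrestin aggregation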
# Vero = assay: cells; format: functional; conditions: Chlorocebus sabaeus
# [20] = molecular target: 5-hydroxytryptamine receptor 5A (Homo sapiens, UniProt P47898); assay: Counterscreen for agonists of OPRM1-OPRD1 heterodimerization: luminescence-based cell-based high throughput dose response assay to identify agonists of 5-hydroxytryptamine (serotonin) 5A receptor (HTR5A). [Related pubchem assays (depositor defined):AID504326, AID504355, AID504692, AID504904, AID504905]; format: functional
# 5-hydroxytryptamine receptor 5A, sequence (P47898 whole entry): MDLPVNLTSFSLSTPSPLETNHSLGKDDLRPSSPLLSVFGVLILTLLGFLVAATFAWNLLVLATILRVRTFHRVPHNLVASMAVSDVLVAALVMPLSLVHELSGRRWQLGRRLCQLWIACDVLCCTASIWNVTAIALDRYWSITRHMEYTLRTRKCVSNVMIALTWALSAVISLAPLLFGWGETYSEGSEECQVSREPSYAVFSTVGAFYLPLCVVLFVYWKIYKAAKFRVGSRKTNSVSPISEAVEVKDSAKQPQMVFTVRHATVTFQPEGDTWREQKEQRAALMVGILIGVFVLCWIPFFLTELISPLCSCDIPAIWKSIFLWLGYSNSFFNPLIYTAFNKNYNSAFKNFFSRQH
# [21] = cytotoxicity toward NIH3T3 fibroblasts, dose response, counter-screen, cell-based, ATP luminescence, mouse fibroblasts (AID 2010); format: functional;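 note: cells exposed to compound for about 90 hours before reading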
# [22] = inhibitors of intracellular T. cruzi replication, confirmation, NIH3T3 host cells, beta-gal luminescence (AID 2044); format: functional, cell-based;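 note: intracellular parasites grown in NIH/3T3 mouse fibroblasts as host cells; luminescent beta-galactosidase reporter signal from transgenic T. cruzi replicating inside host cells; inhibitors lower the luminescence signal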
# Cytochrome P450 3A4 [23] = molecular target: T3, Cytochrome P450 3A4; remark: listed apart in the source
# Protein skinhead-1 = molecular target: T4, Protein skinhead-1 (Caenorhabditis elegans, UniProt P34707); format: functional
# T4 sequence (P34707 whole entry): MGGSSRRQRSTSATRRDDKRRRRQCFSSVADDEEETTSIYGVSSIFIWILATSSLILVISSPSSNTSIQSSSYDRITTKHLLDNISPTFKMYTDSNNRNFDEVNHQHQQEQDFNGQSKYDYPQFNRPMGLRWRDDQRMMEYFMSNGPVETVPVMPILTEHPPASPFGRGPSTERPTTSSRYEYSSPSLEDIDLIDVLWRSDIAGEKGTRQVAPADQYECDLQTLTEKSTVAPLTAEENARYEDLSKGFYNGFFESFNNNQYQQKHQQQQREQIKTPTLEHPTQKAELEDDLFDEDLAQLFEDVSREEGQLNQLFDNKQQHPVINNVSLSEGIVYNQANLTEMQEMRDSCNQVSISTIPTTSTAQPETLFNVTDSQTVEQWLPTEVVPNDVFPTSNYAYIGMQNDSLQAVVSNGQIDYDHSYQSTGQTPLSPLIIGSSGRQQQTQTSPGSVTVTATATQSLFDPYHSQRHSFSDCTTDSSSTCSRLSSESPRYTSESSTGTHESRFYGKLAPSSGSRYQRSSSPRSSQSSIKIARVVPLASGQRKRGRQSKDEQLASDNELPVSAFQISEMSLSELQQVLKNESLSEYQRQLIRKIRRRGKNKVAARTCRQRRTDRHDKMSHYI
# Lysine-specific demethylase 4A, sequence (O75164 whole entry): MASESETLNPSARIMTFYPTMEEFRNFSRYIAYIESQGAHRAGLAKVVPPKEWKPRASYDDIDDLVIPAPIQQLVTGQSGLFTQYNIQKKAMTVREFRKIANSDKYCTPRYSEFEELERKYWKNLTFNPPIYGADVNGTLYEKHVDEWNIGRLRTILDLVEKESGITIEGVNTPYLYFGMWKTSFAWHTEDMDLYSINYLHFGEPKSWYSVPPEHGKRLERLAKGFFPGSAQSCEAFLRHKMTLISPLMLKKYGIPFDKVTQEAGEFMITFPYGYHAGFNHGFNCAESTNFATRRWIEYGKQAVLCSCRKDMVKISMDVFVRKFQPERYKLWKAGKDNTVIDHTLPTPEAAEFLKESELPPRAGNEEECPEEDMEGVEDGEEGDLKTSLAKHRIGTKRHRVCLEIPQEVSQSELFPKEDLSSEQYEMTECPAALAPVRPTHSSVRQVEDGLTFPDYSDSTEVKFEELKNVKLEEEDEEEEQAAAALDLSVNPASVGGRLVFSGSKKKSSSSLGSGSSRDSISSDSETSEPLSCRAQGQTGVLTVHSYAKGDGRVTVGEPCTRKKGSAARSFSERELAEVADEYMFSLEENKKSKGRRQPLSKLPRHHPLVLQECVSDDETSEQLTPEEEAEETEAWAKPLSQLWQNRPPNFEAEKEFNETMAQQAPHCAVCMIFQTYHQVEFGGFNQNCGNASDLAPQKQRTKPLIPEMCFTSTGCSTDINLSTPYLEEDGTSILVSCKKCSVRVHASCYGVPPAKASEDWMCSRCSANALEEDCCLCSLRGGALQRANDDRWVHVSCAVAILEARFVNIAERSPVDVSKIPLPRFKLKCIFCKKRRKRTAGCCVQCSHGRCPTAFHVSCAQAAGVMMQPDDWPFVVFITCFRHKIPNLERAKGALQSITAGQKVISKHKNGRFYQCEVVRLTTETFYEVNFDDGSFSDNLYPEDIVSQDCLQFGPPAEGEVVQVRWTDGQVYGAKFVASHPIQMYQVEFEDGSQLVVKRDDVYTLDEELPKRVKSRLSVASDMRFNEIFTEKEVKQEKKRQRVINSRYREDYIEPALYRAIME
smiles,measurement,setting,value
CCn1nnc(NC(=O)c2cc3ccccc3o2)n1,AC50,[1],48.3 µM (active)
Cc1cc(OC(=O)c2cccs2)ccc1C(C)C,IC50,Cysteine protease ATG4B,5.44 µM (active)
same,IC50,Phospholipase A2,3.74 µM (active)
CCn1c(C)cc(C(=O)COC(=O)c2cccnc2SC)c1C,IC50,HEK293 [2],> 67.5 µM (inactive)
same,IC50,[3],> 67.5 µM (inactive)
C[N+](C)(C)C(Cc1ccccc1)C(=O)[O-] (stereo not given),IC50,[4],60.4 µM (active)
same,IC50,[5],4.35 µM (active)
same,IC50,[6],> 100 µM (inactive)
CC(C)(C)OC(=O)CC(S(=O)(=O)c1ccccc1)S(=O)(=O)c1ccccc1,EC50,HEK293 [7],> 59.6 µM (inactive)
same,EC50,HEK293 [8],> 59.6 µM (inactive)
COc1c(N2CCN(C(S)=Nc3ccccc3F)C(C)C2)c(F)cc2c(=O)c(C(=O)O)cn(C3CC3)c12 (stereo not given),EC50,Streptococcus,3.27 µM (active)
same,AC50,Escherichia coli [9],0.518 µM (active)
same,EC50,[10],2.24 µM (active)
O=C1CCCc2nc3c(cc21)C(O)Oc1c-3ccc2ccccc12 (stereo not given),AC50,HeLa,51 µM (active)
same,EC50,H4,> 120 µM (not active)
CCOC(=O)[C@H]1[C@H]2COc3ccc(OC)cc3[C@H]2N2C(=O)CN(Cc3ccccc3)C(=O)[C@@]12C,AC50,Escherichia coli [11],54.9 µM (active)
O=c1c(-c2nc3ccccc3s2)cccn1Cc1ccccc1,AC50,HeLa,56.9 µM (active)
same,EC50,[12],7.37 µM (active)
NS(=O)(=O)c1ccc(N=Nc2c(O)c(C(=O)O)cc3ccccc23)cc1,AC50,[13],3.59 µM (active)
same,IC50,Genome polyprotein,> 100 µM (active)
O=C(O)c1cc(O)c2c(c1)[C@@H]([C@H]1c3cc(C(=O)O)cc(O)c3C(=O)c3c(O[C@@H]4O[C@H](CO)[C@@H](O)[C@H](O)[C@H]4O)cccc31)c1cccc(O[C@@H]3O[C@H](CO)[C@@H](O)[C@H](O)[C@H]3O)c1C2=O [SENNOSIDE B],AC50,[1],3.69 µM (active)
Cc1ccc(C(=O)C2CCNCC2)cc1.Cl,AC50,Cytochrome P450 2C19,inconclusive
same,AC50,Cytochrome P450 3A4 [14],inconclusive
Cc1ccc(/N=C2N=C(O)/C(=C/C=C/c3ccco3)S\2)cc1C,IC50,Cysteine protease ATG4B,6.65 µM (active)
same,IC50,Phospholipase A2,5.94 µM (active)
same,IC50,[15],13.4 µM (active)
COc1cc(SC)ccc1C(=O)Nc1ccc2c(c1)OCO2,IC50,HEK293 [2],> 67.6 µM (inactive)
same,IC50,[3],> 67.6 µM (inactive)
COc1ccc2cc(C(=O)C3CCCN(C(=O)c4cc(=O)n(C)c(=O)n4C)C3)ccc2c1 (stereo not given),AC50,CAAX prenyl protease 2 [16],10.4 µM (active)
same,AC50,CAAX prenyl protease 2 [17],14.2 µM (active)
Cc1ccccc1C(=O)N1CCN(c2ccc([N+](=O)[O-])c(N3CCOCC3)c2)CC1,AC50,Cytochrome P450 3A4 [14],inconclusive
Cc1cc(/C=C2\SC(Nc3ccccc3)=NC2=O)c(C)n1-c1ccc(S(N)(=O)=O)cc1,EC50,[18],3.03 µM (active)
same,EC50,Mu-type opioid receptor,> 92.5 µM (inactive)
same,IC50,[19],1.66 µM (active)
same,CC50,Vero,7.44 µM (active)
same,EC50,[20],> 92.5 µM (inactive)
CCCn1ncc(CN2CCC(C(=O)Nc3cccc(-c4cccc(F)c4)c3)CC2)c1C,EC50,[21],3.89 µM (active)
same,EC50,[22],2.33 µM (active)
same,IC50,[4],11.8 µM (active)
same,IC50,[5],0.902 µM (active)
same,IC50,[6],> 100 µM (inactive)
Fc1cccc(NC(S)=NCCCN2CCOCC2)c1,AC50,Cytochrome P450 2C19; read-out: AC50,17.8 µM (inconclusive)
same,AC50,Cytochrome P450 3A4 [23],17.8 µM (inconclusive)
same,AC50,Escherichia coli [11],17.3 µM (active)
CC(=O)Nc1nc2ccc(Br)cc2s1,IC50,Protein skinhead-1,> 100 µM (inactive)
same,AC50,[13],3.33 µM (active)
Cc1cccc(N(CC(=O)NC2CCCC2)C(=O)CCCC(=O)Nc2ccccn2)c1,AC50,Escherichia coli [9],25 µM (active)
CCC(=O)OC(Cc1ccccc1)(c1ccccc1)[C@H](C)CN(C)C (stereo not given in full),EC50,[18],86.4 µM (inactive)
same,EC50,Mu-type opioid receptor,> 92.5 µM (inactive)
same,EC50,[20],> 92.5 µM (inactive)
